Measurements as given in patent US20230393118A1, “DEVICES AND METHODS FOR MONITORING CELLS, TISSUES, OR ORGANS-ON-A-CHIP” (University of Rochester, priority 2020, published 2023).

Columns and labels:
[1] = estimated in rodents in the literature; cited from earlier work
[2] = measured plasma drug concentration or target trough, provided by pharmaceutical makers as general guidelines; cited from earlier work
16HBE cells = assay: Real-time photonic ring sensor detection of cytokine secretion from 16HBE cells exposed to LPS; type: cell-based, human; settings: LPS 1 μg/mL in DMEM, 30 μL/min for 3 hours, 37° C.
Protocol: 16HBE cells were seeded on the membrane of the exemplar device and allowed to adhere to the membrane for 3 hours. The device was then connected to a peristaltic pump, which contacted the cells with Dulbecco's Modified Eagles' Medium (DMEM) at a low flow rate (˜30 μL/min) overnight. The next day, the device was set on a temperature-controlled stage (37° C.) and DMEM doped with LPS (at 1 μg/mL) was flowed over the cells (through the top channel) at 30 μL/min for 3 hours. Spectra were measured continuously to observe any shifts in resonance of the photonic ring resonators over time.
FIG. 1F is a graph with a Y axis showing the wavelength of light resonant in the test and the control ring sensors, with longer wavelengths towards the top, and an X axis showing time in seconds following exposure of the cells to LPS. […]
FIG. 1G presents graphs showing the results of subtracting the shifts in the […] (indicating non-specific binding) from that of the […] for two cytokines, IL-6 (left graph) and IL-1B (right-hand graph). […] For the reader's attention, it is noted that the scale of the two graphs is different, with much smaller quantities of cytokine being detected in the right-hand graph. […]

tendon fibroblasts = assay: Tendon fibroblasts seeded on axially-constrained hydrogel treated with TGF-β1; type: cell-based; settings: fibroblasts differentiate into myofibroblasts
Source text: Subsequently, activation of α-SMA+ve myofibroblasts is evident even after 28 dpi.

For `CO[C@H]1C[C@@H]2CC[C@@H](C)[C@@](O)(O2)C(=O)C(=O)N2CCCC[C@H]2C(=O)O[C@H]([C@H](C)C[C@@H]2CC[C@@H](OCCO)[C@H](OC)C2)CC(=O)[C@H](C)/C=C(\C)[C@@H](O)[C@@H](OC)C(=O)[C@H](C)C[C@H](C)/C=C/C=C/C=C/1C` [Everolimus], the ED50 [1] is listed as about 0.1 to 2.38 mg/kg and the “Target whole blood trough concentrations (plasma concentrations)” value [2] is listed as 5 to 15 ng/mL.
For `CO[C@H]1C[C@@H]2CC[C@@H](C)[C@@](O)(O2)C(=O)C(=O)N2CCCC[C@H]2C(=O)O[C@H]([C@H](C)C[C@@H]2CC[C@@H](O)[C@H](OC)C2)CC(=O)[C@H](C)/C=C(\C)[C@@H](O)[C@@H](OC)C(=O)[C@H](C)C[C@H](C)/C=C/C=C/C=C/1C` [Sirolimus], the “Target whole blood trough concentrations (plasma concentrations)” value [2] is listed as 16 to 24 ng/mL.
In the case of Lipopolysaccharide [LPS], the “Time at which secretion of cytokines (IL-6, IL-1β) begins after LPS exposure” value (16HBE cells) is reported as “about 70 minutes”.
In the case of “TGF-β1: cytokine used to induce myofibroblast differentiation in tendon fibroblasts”, the “α-SMA gene (Acta) expression and hydrogel lateral contraction” value (tendon fibroblasts) is reported as “dose-dependent increase”.
